According to US20150297637A1, “ACTIVATED CARBON COMPRISING AN ADSORBED IODIDE SALT IN A METHOD FOR TREATING CHRONIC BRONCHITIS” (PHARMALUNDENSIS AB, priority 2012, published 2015):
Entries after “also recorded” stand apart in the source; their conditions may differ.

Test system: cough and sputum production in a patient with chronic bronchitis
Assay: Use of KI-impregnated charcoal for treating a patient with chronic bronchitis
Assay type: in vivo, human
Conditions: one patient; capsule with 10 mg KI per day for one month
Excerpt: A person has for several years experienced increasing problems with cough and mucous production for long periods. They were diagnosed as suffering from chronic bronchitis. They were prescribed standard treatment including corticosteroids, anti-cholinergics, beta2-stimulants and mucolytics such as acetylcysteine.
Since the chronic bronchitis caused considerable inconvenience, they examined alternative ways to reduce the symptoms.
To clarify if the improvement of the chronic bronchitis by KI-impregnated activated charcoal was caused by iodide, […] then took a capsule with 10 mg (which amount is considerably higher than the amount of iodide in the KI-impregnated activated charcoal, 300 mg×1.62%=4.9 mg) KI per day for one month.
Finally, they once again took 300 mg activated charcoal impregnated with 1.6% KI in a 00 vegetable capsule for one month.

[I-].[K+] [KI, Potassium iodide]
Cough and sputum production: did not reduce the cough or sputum production at all; also recorded: no improvement of cough or sputum production
